Assay results as given in ChEMBL document CHEMBL4840338, “Cudraflavone C from Artocarpus hirsutus as a Promising Inhibitor of Pathogenic, Multidrug-Resistant S. aureus, Persisters, and Biofilms: A New Insight into a Rational Explanation of Traditional Wisdom” (J Nat Prod, 2021).
Converted amounts (≈) assume the structure as drawn. The source made the active and inactive calls. The calls are words filed in the database; no cut-off is given here.

Experiments:
Escherichia coli [1] = experiment: Antibacterial activity against Escherichia coli ATCC 25922 assessed as bacterial growth inhibition incubated for 16 to 18 hrs by broth microdilution method; assay type: functional; conditions: time 16-18 hrs
[2] = Selectivity index, ratio of CC50 for cytotoxicity against African green monkey Vero cells to MIC for antibacterial activity against Staphylococcus aureus ATCC 29213; assay type: toxicity, cell-based; conditions: read-out: Selectivity Index
Escherichia coli [3] = experiment: Antibacterial activity against Escherichia coli ATCC 25922 assessed as bacterial growth inhibition in presence of outermembrane permeabilizer, PMBN incubated for 16 to 18 hrs by broth microdilution method; assay type: functional; conditions: time 16-18 hrs
Staphylococcus aureus [4] = experiment: Antibacterial activity against methicillin-resistant Staphylococcus aureus NRS 10119 assessed as bacterial growth inhibition incubated for 16 to 18 hrs by broth microdilution method; assay type: functional; conditions: time 16-18 hrs
Staphylococcus aureus [5] = experiment: Antibacterial activity against methicillin-resistant Staphylococcus aureus NRS 10100 assessed as bacterial growth inhibition incubated for 16 to 18 hrs by broth microdilution method; assay type: functional; conditions: time 16-18 hrs
Staphylococcus aureus [6] = experiment: Antibacterial activity against methicillin-resistant Staphylococcus aureus NRS 10129 assessed as bacterial growth inhibition incubated for 16 to 18 hrs by broth microdilution method; assay type: functional; conditions: time 16-18 hrs
Staphylococcus aureus [7] = experiment: Antibacterial activity against methicillin-resistant Staphylococcus aureus NRS 10198 assessed as bacterial growth inhibition incubated for 16 to 18 hrs by broth microdilution method; assay type: functional; conditions: time 16-18 hrs
Staphylococcus aureus [8] = experiment: Antibacterial activity against methicillin-resistant Staphylococcus aureus NRS 10191 assessed as bacterial growth inhibition incubated for 16 to 18 hrs by broth microdilution method; assay type: functional; conditions: time 16-18 hrs
Staphylococcus aureus [9] = experiment: Antibacterial activity against methicillin-resistant Staphylococcus aureus NRS 10193 assessed as bacterial growth inhibition incubated for 16 to 18 hrs by broth microdilution method; assay type: functional; conditions: time 16-18 hrs
Staphylococcus aureus [10] = experiment: Antibacterial activity against vancomycin-resistant Staphylococcus aureus VRS1 assessed as bacterial growth inhibition incubated for 16 to 18 hrs by broth microdilution method; assay type: functional; conditions: time 16-18 hrs
Staphylococcus aureus [11] = experiment: Antibacterial activity against vancomycin-resistant Staphylococcus aureus VRS4 assessed as bacterial growth inhibition incubated for 16 to 18 hrs by broth microdilution method; assay type: functional; conditions: time 16-18 hrs
Staphylococcus aureus [12] = experiment: Antibacterial activity against vancomycin-resistant Staphylococcus aureus VRS12 assessed as bacterial growth inhibition incubated for 16 to 18 hrs by broth microdilution method; assay type: functional; conditions: time 16-18 hrs
Enterococcus [13] = experiment: Antibacterial activity against vancomycin-susceptible Enterococcus NR 31884 assessed as bacterial growth inhibition incubated for 16 to 18 hrs by broth microdilution method; assay type: functional; conditions: time 16-18 hrs
Enterococcus [14] = experiment: Antibacterial activity against vancomycin-susceptible Enterococcus NR 31885 assessed as bacterial growth inhibition incubated for 16 to 18 hrs by broth microdilution method; assay type: functional; conditions: time 16-18 hrs
Enterococcus [15] = experiment: Antibacterial activity against vancomycin-susceptible Enterococcus NR 31886 assessed as bacterial growth inhibition incubated for 16 to 18 hrs by broth microdilution method; assay type: functional; conditions: time 16-18 hrs
Enterococcus [16] = experiment: Antibacterial activity against vancomycin-susceptible Enterococcus NR 31888 assessed as bacterial growth inhibition incubated for 16 to 18 hrs by broth microdilution method; assay type: functional; conditions: time 16-18 hrs
Enterococcus [17] = experiment: Antibacterial activity against vancomycin-resistant Enterococcus NR 31912 assessed as bacterial growth inhibition incubated for 16 to 18 hrs by broth microdilution method; assay type: functional; conditions: time 16-18 hrs
Staphylococcus aureus [18] = experiment: Antibiofilm activity against Staphylococcus aureus ATCC 29213 assessed as reduction in preformed bacterial biofilm at 10XMIC incubated for 24 hrs by crystal violet staining based microtiter plate reader assay; assay type: functional
Staphylococcus aureus [19] = experiment: Antibacterial activity against Staphylococcus aureus ATCC 29213 infected in mouse J774.A1 assessed as reduction in intracellular bacterial burden at 5XMIC incubated for 24 hrs followed by replating on TSA plate for 24 hrs by intracellular killing assay; assay type: functional; conditions: time 48 hrs
Staphylococcus aureus [20] = experiment: Antibacterial activity against Staphylococcus aureus ATCC 29213 assessed as fractional inhibitory concentration in presence of daptomycin incubated for 24 hrs by checkerboard assay; assay type: functional
Staphylococcus aureus [21] = experiment: Synergistic antibacterial activity against Staphylococcus aureus ATCC 29213 assessed as fractional inhibitory concentration in presence of gentamycin incubated for 24 hrs by checkerboard assay; assay type: functional
Staphylococcus aureus [22] = experiment: Antibacterial activity against Staphylococcus aureus ATCC 29213 assessed as fractional inhibitory concentration in presence of levofloxacin incubated for 24 hrs by checkerboard assay; assay type: functional
Staphylococcus aureus [23] = experiment: Antibacterial activity against Staphylococcus aureus ATCC 29213 assessed as fractional inhibitory concentration in presence of minocycline incubated for 24 hrs by checkerboard assay; assay type: functional
Staphylococcus aureus [24] = experiment: Antibacterial activity against Staphylococcus aureus ATCC 29213 assessed as fractional inhibitory concentration in presence of rifampicin incubated for 24 hrs by checkerboard assay; assay type: functional
Staphylococcus aureus [25] = experiment: Antibacterial activity against Staphylococcus aureus ATCC 29213 assessed as fractional inhibitory concentration in presence of vancomycin incubated for 24 hrs by checkerboard assay; assay type: functional
Staphylococcus aureus [26] = experiment: Synergistic antibacterial activity against multidrug-resistant methicillin resistant Staphylococcus aureus NRS 10119 assessed as reduction in bacterial load at 1X MIC preincubated for 24 hrs in presence of gentamycin followed by subculturing on TSA plate for 18 to 20 hrs by time-kill assay; assay type: functional; conditions: time 42-44 hrs
Staphylococcus aureus [27] = experiment: Antibacterial activity against Staphylococcus aureus ATCC 29213 assessed as reduction in bacterial growth at sub-MIC incubated for more than 40 days; assay type: functional, organism-based; conditions: time day >40
Staphylococcus aureus [28] = experiment: Bactericidal activity against Staphylococcus aureus ATCC 29213 assessed as reduction in bacterial load at 10X MIC preincubated for 6 hrs followed by subculturing on TSA plate for 18 to 20 hrs by time-kill assay; assay type: functional; design: scale not given: the % may be the effect or the level left; conditions: time 24-26 hrs
Staphylococcus aureus [29] = experiment: Antibacterial activity against Staphylococcus aureus ATCC 29213 assessed as bacterial growth inhibition in presence of ceftazidime incubated for 24 hrs by checkerboard assay; assay type: functional
Staphylococcus aureus [30] = experiment: Antibacterial activity against Staphylococcus aureus ATCC 29213 assessed as bacterial growth inhibition in presence of minocycline incubated for 24 hrs by checkerboard assay; assay type: functional
Staphylococcus aureus [31] = experiment: Antibacterial activity against Staphylococcus aureus ATCC 29213 assessed as bacterial growth inhibition in presence of rifampicin incubated for 24 hrs by checkerboard assay; assay type: functional
Staphylococcus aureus [32] = experiment: Antibacterial activity against Staphylococcus aureus ATCC 29213 assessed as bacterial growth inhibition in presence of vancomycin incubated for 24 hrs by checkerboard assay; assay type: functional
Staphylococcus aureus [33] = experiment: Synergistic bactericidal activity against Staphylococcus aureus ATCC 29213 assessed as reduction in bacterial load at 1X MIC preincubated for 6 hrs in presence of gentamycin followed by subculturing on TSA plate for 18 to 20 hrs by time-kill assay; assay type: functional; conditions: time 24-26 hrs
Staphylococcus aureus [34] = experiment: Antibacterial activity against Staphylococcus aureus ATCC 29213 assessed as time for increase by 1 log10CFU at 1XMIC incubated for 1 hr followed by drug wash-out and measured every single 1 hr; assay type: functional
Staphylococcus aureus [35] = experiment: Antibacterial activity against Staphylococcus aureus ATCC 29213 assessed as time for increase by 1 log10CFU at 10XMIC incubated for 1 hr followed by drug wash-out and measured every single 1 hr; assay type: functional
Staphylococcus aureus [36] = experiment: Antibacterial activity against Staphylococcus aureus ATCC 29213 assessed as time for post-antibiotic effect at 1XMIC incubated for 1 hr followed by drug wash-out and measured every single 1 hr; assay type: functional
Staphylococcus aureus [37] = experiment: Antibacterial activity against Staphylococcus aureus ATCC 29213 assessed as time for post-antibiotic effect at 10XMIC incubated for 1 hr followed by drug wash-out and measured every single 1 hr; assay type: functional
Staphylococcus aureus [38] = experiment: microbe, parasite or virus in culture; conditions: ATCC 29213
Description: Antibacterial activity against Staphylococcus aureus ATCC 29213 assessed as bacterial growth inhibition incubated for 16 to 18 hrs by broth microdilution method

Structure (SMILES): CC(C)=CCc1c(O)cc2oc(-c3ccc(O)cc3O)c(CC=C(C)C)c(=O)c2c1O [CUDRAFLAVONE C]
- MIC (Escherichia coli [1]): > 64 µg/mL
- selectivity ratio [2]: 25
- MIC (Escherichia coli [3]): 1 µg/mL
- MIC (Staphylococcus aureus [4]): 4 µg/mL (≈ 9.47 µM)
- MIC (Staphylococcus aureus [5]): 4 µg/mL (≈ 9.47 µM)
- MIC (Staphylococcus aureus [6]): 4 µg/mL (≈ 9.47 µM)
- MIC (Staphylococcus aureus [7]): 4 µg/mL (≈ 9.47 µM)
- MIC (Staphylococcus aureus [8]): 4 µg/mL (≈ 9.47 µM)
- MIC (Staphylococcus aureus [9]): 4 µg/mL (≈ 9.47 µM)
- MIC (Staphylococcus aureus [10]): 4 µg/mL (≈ 9.47 µM)
- MIC (Staphylococcus aureus [11]): 4 µg/mL (≈ 9.47 µM)
- MIC (Staphylococcus aureus [12]): 4 µg/mL (≈ 9.47 µM)
- MIC (Enterococcus [13]): 4 µg/mL (≈ 9.47 µM)
- MIC (Enterococcus [14]): 4 µg/mL (≈ 9.47 µM)
- MIC (Enterococcus [15]): 4 µg/mL (≈ 9.47 µM)
- MIC (Enterococcus [16]): 4 µg/mL (≈ 9.47 µM)
- MIC (Enterococcus [17]): 4 µg/mL (≈ 9.47 µM)
- inhibition (INH) (Staphylococcus aureus [18]): 30.4%
- Activity (Staphylococcus aureus [19]): 2 log10CFU/ml
- FIC (Staphylococcus aureus [20]): 1.5
- FIC (Staphylococcus aureus [21]): 0.135
- FIC (Staphylococcus aureus [22]): 1.5
- FIC (Staphylococcus aureus [23]): 1.5
- FIC (Staphylococcus aureus [24]): 1.5
- FIC (Staphylococcus aureus [25]): 1.5
- Activity (Staphylococcus aureus [26]): 6 log10CFU/ml
- Activity (Staphylococcus aureus [27]): Active
- Activity (Staphylococcus aureus [28]): 100%
- MIC (Staphylococcus aureus [29]): 2 µg/mL
- MIC (Staphylococcus aureus [30]): 2 µg/mL
- MIC (Staphylococcus aureus [31]): 2 µg/mL
- MIC (Staphylococcus aureus [32]): 2 µg/mL
- Activity (Staphylococcus aureus [33]): 9 log10CFU/ml
- Time (Staphylococcus aureus [34]): 4 h
- Time (Staphylococcus aureus [35]): >24 h
- Time (Staphylococcus aureus [36]): 2 h
- Time (Staphylococcus aureus [37]): >22 h
- MIC (Staphylococcus aureus [38]): 2 µg/mL (≈ 4.73 µM)
